From US5905068A, “Retroviral protease inhibiting compounds” (Abbott Laboratories, priority 1996, dated 1999)

What was measured:
uninfected MT4 cells = test: Cytotoxicity in uninfected MT4 cells (MTT); type: cell-based; conditions: 5 days, n=four duplicate determinations, read-out: CTC50 (50% cytotoxicity concentration)
Procedure, shortened: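 Uninfected MT4 cells, 1×10^4 per well, incubated 5 days at 37 °C with half-log compound dilutions. Viability read by MTT-type OD at 570/650 nm after SDS/HCl lysis overnight. CTC50 taken as 50% cytotoxicity concentration.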

HIVIIIB = test: Antiviral Activity: anti-HIV activity in MT4 cells infected with HIVIIIB (MTT); type: cell-based; conditions: MOI 0.003, 5 days, n=four duplicate determinations
Procedure, shortened: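 MT4 cells infected 1 h with HIVIIIB at 0.003 MOI, washed, seeded at 1×10^4 cells/well with half-log compound dilutions in RPMI 1640 plus 10% FBS and added human serum (final 60%, 35% or 22.5% total serum), 5 days at 37 °C. Viability read by MTT at 570/650 nm; EC50 by median effect equation, CTC50 on uninfected MT4 cells.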

HIV-1 protease = HIV-1 protease (Human immunodeficiency virus type 1 group M subtype B, UniProt P04585); test: Fluorogenic Assay for Screening Inhibitors of HIV Protease; conditions: 0.5 nM inhibitor, pH 4.5, 30° C.
Method: The inhibitory potency of the compounds of the invention were determined by the following method: The compound of the invention was dissolved in DMSO and a small aliquot further diluted with DMSO to 100 times the final concentration desired for testing. The reaction was carried out in a 6×50 mm tube in a total volume of 300 microliters. […] After addition of inhibitor, the reaction mixture was placed in the fluorometer cell holder and incubated at 30° C. for several minutes. The reaction was initiated by the addition of a small aliquot of cold HIV protease. The fluorescence intensity (excitation 340 nm, emission 490 nm) was recorded as a function of time. The reaction rate was determined for the first six to eight minutes. The observed rate was directly proportional to the moles of substrate cleaved per unit time. The percent inhibition was calculated according to the equation: 100×(1-(rate of inhibitor)/(rate in absence of inhibitor)). As a control, duplicate reactions were performed identically as above but without the addition of an inhibitor compound.

For `Cc1ccc(OCC(=O)N[C@@H](Cc2ccccc2)C[C@H](O)[C@H](Cc2ccccc2)NC(=O)O[C@H]2CO[C@H]3OCC[C@H]32)c(C)n1` [Example 10, (2S,3S,5S)-5-(2,6-Dimethyl-pyridin-3-yl-oxyacetyl)amino-2-((3R,3aS,6aR)-bis-tetrahydrofuran-3-yl-oxycarbonyl)amino-1,6-diphenyl-3-hydroxyhexane], which CC50 (uninfected MT4 cells) is on record?
Its CC50 is greater than 100000 nM.

And the EC50 (HIVIIIB)?
The EC50 was 184 nM.

And the “% Inhibition” value (HIV-1 protease)?
The value was 49%.
